Experimental data as given in patent US20190389963A1, “COMBINATION THERAPY BY USING ANTI-GLOBO H OR ANTI-SSEA-4 ANTIBODY WITH ANTI-NEGATIVE IMMUNE CHECK POINTS ANTIBODY” (OBI Pharma, Inc., priority 2018, published 2019).

How the values were obtained:
[1] = system: PD-1 Effector Cells with PD-L1+ target cells (TCR signaling); experiment: PD-1/PD-L1 Blockade Bioassay with GHCer or SSEA4Cer treated PD-1 Effector Cells; format: cell-based; conditions: various concentration of ceramide on PD-1 Effector Cells 24 hours, 6 hours with PD-L1+ cells; FIG. 6 as printed
Description: Various concentration of GHCer or SSEA4Cer was incubated with PD-1 Effector Cells (PD-1/PD-L1 Blockade Bioassay Kit, Promega, Cat# J3011), then incubate for 24 hours at 37° C. PD-L+ target cells (PD-1/PD-L1 Blockade Bioassay Kit, Promega, Cat# J3011) were seeded in 96 well plate and incubate for 24 hours at 37° C. with 5% CO2. The growth medium from the plate coated PD- L1+ cells was replaced by the GHCer or SSEA4Cer/Effector cells R×n and incubated for 6 hours. Plate was removed to ambient temperature for 10 mins. Bio-Glo™ Reagent was added and incubate for 15 mins then read by luminometer.

Jurkat/NFAT-Re Luc cells = experiment: Jurkat/NFAT-Re Luc T cell activation by Anti-CD3/CD28, luciferase reporter, after pre-incubation with Globo series ceramides; format: cell-based, human; conditions: various concentrations of ceramide, pre-incubated 18-24 hours; 6 hours activation; FIG. 2
Description: Jurkat/NFAT-Re Luc cells (Promega, Inc., Cat# G7102) were pre-incubated with or without various concentrations of chemically synthesized Globo H ceramide (GHCer) or SSEA-4 ceramide (SSEA4Cer) for 18-24 hours in 48-well culture plate. Cells were collected and transferred to white, flat-bottom 96-well assay plates (Greiner Bio-One GmbH, Cat#655073) coated overnight with Anti-human CD3 (100 ng/well) (BioLegend, Inc. Cat#317326), and Anti-human CD28 (300 ng/well) (BioLegend, Inc. Cat#302914) in 37° C. incubator for a 6 hours activation. Assay plates were removed from the incubator and equilibrated to room temperature (22-25° C.) for 15 minutes. 75 μL of Bio-Glo™ Luciferase Assay Reagent (Promega, Inc. Cat#G7940) was added and incubated the plates at RT for 15 minutes. Luminescence was measured using a microplate reader SpectraMax L (Molecular Devices, LLC.). The Photomultiplier Tube (PMT) sensitivity was set as autorange and calibrated at 570 nm. Fold of induction was calculated by RLUactivated/RLUunstimulated.

[2] = system: PD-1/PD-L1 engagement inhibited TCR signaling (PD-1 Effector Cells, PD-L1+ target cells); experiment: PD-1/PD-L1 Blockade Bioassay, GHCer treated effector cells with Keytruda or Tecentriq; format: cell-based; conditions: 6 hours, FIG. 7; for Release of PD-1/PD-L1 engagement inhibited TCR signaling by checkpoint antibody: 2 μM antibody, effector cells with 40 μM GHCer
Description: (§1) 40 μM GHCer was incubated with PD-1 Effector Cells (PD-1/PD-L1 Blockade Bioassay Kit, Promega, Cat# J3011), then incubate for 24 hours at 37° C. with 5% CO2. PD-L1+ target cells were seeded in 96 well plate and incubate for 24 hours at 37° C. with 5% CO2. The growth medium from the plates coated PD-L+ cells was replaced by the GHCer/Effector cells R×n with 2 μM Keytruda, the Anti-PD-1 mAb, or 2 lμM Tecentriq, the Anti-PD-L1 mAb, and incubate for 6 hours at 37° C. with 5% CO2. Plate was removed to ambient temperature for 10 mins. Bio-Glo™ Reagent was added and incubate for 15 mins then read by luminometer.

[3] = system: GHCer and PD-1/PD-L1 engagement inhibited TCR signaling (PD-1 Effector Cells, PD-L1+ target cells); experiment: PD-1/PD-L1 Blockade Bioassay, GHCer pre-incubated with OBI-888, combined with Keytruda or Tecentriq; format: cell-based; conditions: 10 μM OBI-888 with GHCer 4 hours; 2 μM Keytruda or 2 μM Tecentriq, 6 hours; FIG. 10 as printed
Description: (§2) GHCer were incubated with 10 μM OBI-888 in assay medium containing 99% RPMI 1640/1% FBS (PD-1/PD-L1 Blockade Bioassay Kit, Promega, Cat# J3011) at 37° C. for 4 hours. Samples were centrifuged at 8000×g for 5 minutes twice and supernatant were harvested and incubated with PD-1 Effector Cells for 24 hours. PD-L1+ target cells were seeded in 96 well plate and incubate for 24 hours at 37° C. with 5% CO2. The growth medium from the plates coated PD- L1 cells was replaced by the GHCer/Effector cells R×n with 2 μM Keytruda or 2 μM Tecentriq and incubate for 6 hours at 37° C. with 5% CO2. Plate was removed to ambient temperature for 10 mins. Bio-Glo™ Reagent was added and incubate for 15 mins then read by luminometer.

[4] = system: PD-1/PD-L1 engagement inhibited TCR signaling (PD-1 Effector Cells, PD-L1+ target cells); experiment: PD-1/PD-L1 Blockade Bioassay, SSEA4Cer treated effector cells with Keytruda or Tecentriq; format: cell-based; conditions: 6 hours, FIG. 8; for Release of PD-1/PD-L1 engagement inhibited TCR signaling by checkpoint antibody: 2 μM antibody, effector cells with 40 μM SSEA4Cer
Description: as §1, with “SSEA4Cer” for “GHCer”, “SSEA4Cer/Effector” for “GHCer/Effector”, “μM” for “lμM”

[5] = system: SSEA4Cer and PD-1/PD-L1 engagement inhibited TCR signaling (PD-1 Effector Cells, PD-L1+ target cells); experiment: PD-1/PD-L1 Blockade Bioassay, SSEA4Cer pre-incubated with OBI-898, combined with Keytruda or Tecentriq; format: cell-based; conditions: 5 μM OBI-898 with SSEA4Cer 4 hours; 2 μM Keytruda or 2 μM Tecentriq, 6 hours; FIG. 11 as printed
Description: as §2, with “SSEA4Cer were” for “GHCer were”, “with 5” for “with 10”, “μM OBI-898” for “μM OBI-888”, “medium” for “medium containing 99% RPMI 1640/1% FBS (PD-1/PD-L1 Blockade Bioassay Kit, Promega, Cat# J3011)”, “hours. PD-L+” for “hours. PD-L1+”, “the SSEA4Cer/Effector” for “the GHCer/Effector”

Substance	Suppression of TCR activation signaling pathway together with PD-1/PD-L1 engagement [1]	Jurkat T cell activation to Anti-CD3/28 stimulation (fold of induction, RLUactivated/RLUunstimulated) (Jurkat/NFAT-Re Luc cells)	Effect of GHCer incorporation on Keytruda or Tecentriq released TCR signaling ([2]; 40 μM GHCer on effector cells 24 hours, 2 μM Keytruda or 2 lμM Tecentriq)	Rescue of GHCer and PD-1/PD-L1 engagement inhibited TCR signaling by combination [3]	Release of PD-1/PD-L1 engagement inhibited TCR signaling by checkpoint antibody [2]	Release of PD-1/PD-L1 engagement inhibited TCR signaling by checkpoint antibody [4]	Rescue of SSEA4Cer and PD-1/PD-L1 engagement inhibited TCR signaling by combination [5]	Effect of SSEA4Cer incorporation on Keytruda or Tecentriq released TCR signaling ([4]; 40 μM SSEA4Cer on effector cells 24 hours, 2 μM Keytruda or 2 μM Tecentriq)
Globo H ceramide [GHCer]	acts synergistically with PD-1/PD-L1 engagement to suppress the TCR activation signaling pathway	suppress the Jurkat T cell activation to Anti-CD3/28 stimulation in a dose dependent manner	reduced Keytruda or Tecentriq released PD-1/PD-L1 engagement inhibited TCR signaling					
Keytruda: the Anti-PD-1 mAb; MSD Ireland, Lot 7302614A13				acts synergistically with Keytruda	released PD-1/PD-L1 engagement inhibited TCR signaling	released PD-1/PD-L1 engagement inhibited TCR signaling	acts synergistically with Keytruda	
SSEA-4 ceramide [SSEA4Cer]	acts synergistically with PD-1/PD-L1 engagement to suppress the TCR activation signaling pathway	suppress the Jurkat T cell activation to Anti-CD3/28 stimulation in a dose dependent manner						reduced Keytruda or Tecentriq released PD-1/PD-L1 engagement inhibited TCR signaling
Tecentriq: the Anti-PD-L1 mAb; Roche, Lot H0125B11				synergistically with Keytruda or Tecentriq	released PD-1/PD-L1 engagement inhibited TCR signaling	released PD-1/PD-L1 engagement inhibited TCR signaling	synergistically with Keytruda or Tecentriq	
